Data taken from PMC6693646 (Neuropharmacology, 2019).
Bridge positions count the residues as written; N and C are the ends. Peptide text beside a SMILES is read from it.

Columns and labels:
rα6β4 nAChR = rα6β4 nAChR (Rattus norvegicus, UniProt P12392+P43143); experiment: cell-based
rα3β4 nAChR = rα3β4 nAChR (Rattus norvegicus, UniProt P04757+P12392); experiment: cell-based
rα6/α3β2β3 nAChR [1] = target: T1, rα6/α3β2β3 nAChR (Rattus norvegicus, UniProt P04757+P12390+P43143); experiment: cell-based
T1 sequence (P43143 31-237 limits assumed): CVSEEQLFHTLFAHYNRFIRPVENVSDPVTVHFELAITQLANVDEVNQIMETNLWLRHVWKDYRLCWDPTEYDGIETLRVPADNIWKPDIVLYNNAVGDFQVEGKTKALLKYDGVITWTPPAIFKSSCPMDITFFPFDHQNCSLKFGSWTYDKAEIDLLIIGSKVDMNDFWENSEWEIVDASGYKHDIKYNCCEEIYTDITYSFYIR
T1 sequence (P04757 233-499 limits assumed): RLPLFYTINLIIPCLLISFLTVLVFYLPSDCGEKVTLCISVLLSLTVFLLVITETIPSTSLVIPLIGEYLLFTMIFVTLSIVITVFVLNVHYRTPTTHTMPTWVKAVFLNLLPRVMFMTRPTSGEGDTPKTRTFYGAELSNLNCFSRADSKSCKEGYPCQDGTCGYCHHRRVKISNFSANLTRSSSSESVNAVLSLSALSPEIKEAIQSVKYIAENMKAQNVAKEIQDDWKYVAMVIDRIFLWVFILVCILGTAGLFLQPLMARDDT
T1 sequence (P12390 25-500 limits assumed): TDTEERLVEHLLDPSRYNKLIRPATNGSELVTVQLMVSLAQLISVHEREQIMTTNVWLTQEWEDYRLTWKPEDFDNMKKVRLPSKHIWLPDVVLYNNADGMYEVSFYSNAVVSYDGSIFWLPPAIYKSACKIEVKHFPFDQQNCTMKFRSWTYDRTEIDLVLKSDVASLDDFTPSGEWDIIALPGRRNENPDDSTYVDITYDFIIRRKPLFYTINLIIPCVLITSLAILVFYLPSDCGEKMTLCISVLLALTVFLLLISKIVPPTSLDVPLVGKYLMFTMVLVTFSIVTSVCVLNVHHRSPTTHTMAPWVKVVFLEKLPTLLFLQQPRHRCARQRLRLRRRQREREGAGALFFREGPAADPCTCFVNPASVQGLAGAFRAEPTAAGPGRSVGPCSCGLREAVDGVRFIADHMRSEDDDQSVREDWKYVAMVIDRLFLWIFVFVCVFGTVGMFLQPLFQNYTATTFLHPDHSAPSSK

rα2β2 nAChR = rα2β2 nAChR (Rattus norvegicus, UniProt P12389+P12390); experiment: cell-based
rα2β4 nAChR = rα2β4 nAChR (Rattus norvegicus, UniProt P12389+P12392); experiment: cell-based
rα3β2 nAChR = rα3β2 nAChR (Rattus norvegicus, UniProt P04757+P12390); experiment: cell-based
rα3β2 nAChR, sequence (P04757 26-499 limits assumed): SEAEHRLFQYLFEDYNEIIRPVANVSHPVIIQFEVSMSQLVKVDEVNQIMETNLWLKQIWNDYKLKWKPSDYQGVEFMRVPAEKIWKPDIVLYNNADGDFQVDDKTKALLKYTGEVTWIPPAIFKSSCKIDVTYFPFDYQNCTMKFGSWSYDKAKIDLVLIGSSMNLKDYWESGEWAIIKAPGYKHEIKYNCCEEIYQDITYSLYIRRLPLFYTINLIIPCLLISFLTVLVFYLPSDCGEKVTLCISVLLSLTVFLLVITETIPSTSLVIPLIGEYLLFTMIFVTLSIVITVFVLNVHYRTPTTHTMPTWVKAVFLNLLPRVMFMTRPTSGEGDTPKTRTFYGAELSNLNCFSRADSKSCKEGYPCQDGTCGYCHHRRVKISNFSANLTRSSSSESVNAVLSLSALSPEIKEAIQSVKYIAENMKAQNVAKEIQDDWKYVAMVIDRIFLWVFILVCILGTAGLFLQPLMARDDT
rα3β2 nAChR, sequence (P12390 25-500 limits assumed): as the sequence (P12390 25-500 limits assumed) above

rα4β2 nAChR = rα4β2 nAChR (Rattus norvegicus, UniProt P09483+P12390); experiment: cell-based; format: cell-based
rα4β2 nAChR, sequence (P09483 31-630 limits assumed): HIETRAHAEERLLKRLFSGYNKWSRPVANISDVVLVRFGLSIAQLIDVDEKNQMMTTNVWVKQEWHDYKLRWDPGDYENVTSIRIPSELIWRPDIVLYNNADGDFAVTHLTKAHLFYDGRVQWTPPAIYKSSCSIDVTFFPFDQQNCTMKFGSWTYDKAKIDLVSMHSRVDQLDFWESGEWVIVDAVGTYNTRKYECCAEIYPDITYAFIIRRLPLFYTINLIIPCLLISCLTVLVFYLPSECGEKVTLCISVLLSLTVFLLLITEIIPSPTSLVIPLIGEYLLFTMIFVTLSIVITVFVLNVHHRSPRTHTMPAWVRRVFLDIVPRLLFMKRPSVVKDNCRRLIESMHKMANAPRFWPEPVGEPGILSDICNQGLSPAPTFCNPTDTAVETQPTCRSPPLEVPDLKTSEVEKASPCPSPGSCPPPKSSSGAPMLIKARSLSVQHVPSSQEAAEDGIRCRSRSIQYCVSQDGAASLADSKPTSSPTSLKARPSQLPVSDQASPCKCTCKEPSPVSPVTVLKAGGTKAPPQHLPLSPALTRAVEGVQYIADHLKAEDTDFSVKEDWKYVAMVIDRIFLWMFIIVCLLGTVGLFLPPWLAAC
rα4β2 nAChR, sequence (P12390 25-500 limits assumed): as the sequence (P12390 25-500 limits assumed) above

rα4β4 nAChR = rα4β4 nAChR (Rattus norvegicus, UniProt P09483+P12392); experiment: cell-based
rα4β4 nAChR, sequence (P09483 31-630 limits assumed): as the sequence (P09483 31-630 limits assumed) above
rα4β4 nAChR, sequence (P12392 22-495 limits assumed): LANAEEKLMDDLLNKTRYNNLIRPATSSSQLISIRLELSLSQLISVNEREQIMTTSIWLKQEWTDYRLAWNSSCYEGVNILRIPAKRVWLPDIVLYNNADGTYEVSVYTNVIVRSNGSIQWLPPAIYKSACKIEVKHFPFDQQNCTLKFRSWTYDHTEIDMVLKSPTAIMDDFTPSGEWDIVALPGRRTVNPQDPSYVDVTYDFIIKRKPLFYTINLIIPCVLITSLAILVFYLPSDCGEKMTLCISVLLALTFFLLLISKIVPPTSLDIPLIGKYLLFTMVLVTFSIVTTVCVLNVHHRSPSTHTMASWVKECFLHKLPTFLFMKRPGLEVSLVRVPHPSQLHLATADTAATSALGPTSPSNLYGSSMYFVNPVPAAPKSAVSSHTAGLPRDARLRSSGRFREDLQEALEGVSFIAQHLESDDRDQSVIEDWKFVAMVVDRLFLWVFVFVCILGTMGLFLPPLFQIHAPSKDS

rα7 nAChR = rα7 nAChR (Rattus norvegicus, UniProt Q05941); experiment: cell-based
rα7 nAChR, sequence (Q05941 23-502 limits assumed): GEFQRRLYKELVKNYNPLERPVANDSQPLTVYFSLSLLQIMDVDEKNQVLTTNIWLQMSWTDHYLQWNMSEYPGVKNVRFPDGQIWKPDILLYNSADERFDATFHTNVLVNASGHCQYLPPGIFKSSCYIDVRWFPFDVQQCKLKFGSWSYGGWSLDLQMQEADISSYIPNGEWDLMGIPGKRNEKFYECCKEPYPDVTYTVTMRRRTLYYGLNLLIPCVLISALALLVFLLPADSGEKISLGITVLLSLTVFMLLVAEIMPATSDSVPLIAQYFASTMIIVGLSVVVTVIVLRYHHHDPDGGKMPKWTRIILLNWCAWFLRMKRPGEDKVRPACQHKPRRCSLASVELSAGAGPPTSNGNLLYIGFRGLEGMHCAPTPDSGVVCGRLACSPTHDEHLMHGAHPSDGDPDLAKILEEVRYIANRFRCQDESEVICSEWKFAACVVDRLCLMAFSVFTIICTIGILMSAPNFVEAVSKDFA

rα9α10 nAChR = rα9α10 nAChR (Rattus norvegicus, UniProt P43144+Q9JLB5); experiment: cell-based
hα6/α3β4 nAChR = hα6/α3β4 nAChR (Homo sapiens, UniProt P30926+P32297+Q15825); experiment: cell-based
hα6/α3β4 nAChR, sequence (P30926 whole entry, looked up): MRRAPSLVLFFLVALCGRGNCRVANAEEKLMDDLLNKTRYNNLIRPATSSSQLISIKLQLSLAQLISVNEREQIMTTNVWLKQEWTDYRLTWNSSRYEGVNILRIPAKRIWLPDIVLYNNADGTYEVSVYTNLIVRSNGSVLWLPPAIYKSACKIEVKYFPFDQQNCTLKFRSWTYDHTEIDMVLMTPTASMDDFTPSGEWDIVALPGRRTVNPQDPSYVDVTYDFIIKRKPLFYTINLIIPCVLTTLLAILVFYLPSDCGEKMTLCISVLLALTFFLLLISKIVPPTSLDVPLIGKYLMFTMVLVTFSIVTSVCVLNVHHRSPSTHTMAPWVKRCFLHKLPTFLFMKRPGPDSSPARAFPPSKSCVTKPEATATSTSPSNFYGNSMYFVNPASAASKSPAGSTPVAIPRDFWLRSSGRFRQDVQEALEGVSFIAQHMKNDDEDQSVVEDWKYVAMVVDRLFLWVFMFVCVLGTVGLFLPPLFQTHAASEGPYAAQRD
hα6/α3β4 nAChR, sequence (P32297 whole entry, looked up): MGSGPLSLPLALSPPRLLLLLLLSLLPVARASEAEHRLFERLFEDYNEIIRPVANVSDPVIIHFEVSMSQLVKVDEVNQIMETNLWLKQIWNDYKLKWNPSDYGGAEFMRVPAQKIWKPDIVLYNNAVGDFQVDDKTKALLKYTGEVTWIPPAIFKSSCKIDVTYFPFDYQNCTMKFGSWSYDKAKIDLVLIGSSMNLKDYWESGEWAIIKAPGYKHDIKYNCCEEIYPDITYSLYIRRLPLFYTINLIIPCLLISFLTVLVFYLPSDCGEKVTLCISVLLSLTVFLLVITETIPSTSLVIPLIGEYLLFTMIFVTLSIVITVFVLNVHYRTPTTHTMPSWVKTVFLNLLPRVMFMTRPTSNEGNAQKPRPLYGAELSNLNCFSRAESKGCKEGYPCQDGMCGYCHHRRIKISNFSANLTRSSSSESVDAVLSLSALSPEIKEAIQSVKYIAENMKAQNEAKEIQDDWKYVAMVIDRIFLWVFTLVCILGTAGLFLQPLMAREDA
hα6/α3β4 nAChR, sequence (Q15825 whole entry, looked up): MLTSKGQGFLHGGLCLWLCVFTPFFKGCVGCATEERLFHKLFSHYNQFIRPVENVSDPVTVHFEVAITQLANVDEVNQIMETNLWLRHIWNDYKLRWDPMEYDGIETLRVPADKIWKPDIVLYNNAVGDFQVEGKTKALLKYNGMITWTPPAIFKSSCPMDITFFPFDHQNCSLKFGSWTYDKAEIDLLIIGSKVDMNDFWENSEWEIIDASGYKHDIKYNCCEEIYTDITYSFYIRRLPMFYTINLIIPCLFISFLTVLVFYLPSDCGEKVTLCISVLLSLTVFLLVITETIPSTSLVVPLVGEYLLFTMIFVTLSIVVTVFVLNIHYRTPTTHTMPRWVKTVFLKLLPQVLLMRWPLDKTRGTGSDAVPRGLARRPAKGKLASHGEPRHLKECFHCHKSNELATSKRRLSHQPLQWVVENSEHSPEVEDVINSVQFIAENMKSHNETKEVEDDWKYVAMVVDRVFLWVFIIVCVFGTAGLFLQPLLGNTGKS

hα3β4 nAChR = hα3β4 nAChR (Homo sapiens, UniProt P30926+P32297); experiment: cell-based
hα6/α3β2β3 nAChR = hα6/α3β2β3 nAChR (Homo sapiens, UniProt P17787+P32297+Q05901+Q15825); experiment: cell-based
hα4β2 nAChR = hα4β2 nAChR (Homo sapiens, UniProt P17787+P43681); experiment: cell-based
rα6/α3β4 nAChR [2] = target: T2, rα6/α3β4 nAChR (Rattus norvegicus, UniProt P04757+P12392+P43143); experiment: cell-based
T2 sequence (P43143 31-237 limits assumed): as the sequence (P43143 31-237 limits assumed) above
T2 sequence (P04757 233-499 limits assumed): as the sequence (P04757 233-499 limits assumed) above
T2 sequence (P12392 22-495 limits assumed): as the sequence (P12392 22-495 limits assumed) above

rα6/α3β4 nAChR [3] = target: T2, rα6/α3β4 nAChR; format: cell-based
rα6/α3β2β3 nAChR [4] = target: T1, rα6/α3β2β3 nAChR; format: cell-based
[5] = read-out: inhibition of ACh-evoked current

rα3β4 nAChR, sequence (P04757 26-499 limits assumed): as the sequence (P04757 26-499 limits assumed) above
rα3β4 nAChR, sequence (P12392 22-495 limits assumed): as the sequence (P12392 22-495 limits assumed) above

CC(C)[C@@H]1NC(=O)[C@@H]2CCCN2C(=O)[C@H](Cc2c[nH]cn2)NC(=O)[C@H](CO)NC(=O)[C@@H]2CSSC[C@@H](C(=O)NCC(N)=O)NC(=O)[C@H](CC(N)=O)NC(=O)[C@@H]3CCCN3C(=O)[C@H](CC(N)=O)NC(=O)[C@H](CCCCN)NC(=O)[C@H]([C@@H](C)O)NC(=O)[C@H](Cc3ccc(O)cc3)NC(=O)[C@H](CSSC[C@H](NC(=O)CNC(=O)CN)C(=O)N2)NC1=O [VnIB] (H-GGCCSHPVCYTKNPNCG-NH2; disulfide 3-9, 4-16)
IC50 (rα6β4 nAChR): 0.012 µM
IC50 (rα3β4 nAChR): 0.32 µM
inhibition at 1 µM (rα3β4 nAChR; [5]): 80%
IC50 (rα6/α3β2β3 nAChR [1]): 4 µM
inhibition at 1 µM (rα6/α3β2β3 nAChR [1]; [5]): 23%
IC50 (rα2β2 nAChR): > 10 µM
IC50 (rα2β4 nAChR): > 10 µM
IC50 (rα3β2 nAChR): > 10 µM
IC50 (rα4β2 nAChR): > 10 µM
effect on ACh-evoked response (rα4β2 nAChR): no significant effect
IC50 (rα4β4 nAChR): > 10 µM
IC50 (rα7 nAChR): > 10 µM
IC50 (rα9α10 nAChR): > 10 µM
IC50 (hα6/α3β4 nAChR): 0.0053 µM
IC50 (hα3β4 nAChR): > 10 µM
IC50 (hα6/α3β2β3 nAChR): > 10 µM
IC50 (hα4β2 nAChR): > 10 µM
koff (rα6/α3β4 nAChR [2]): 0.00437 s⁻¹
kon (rα6/α3β4 nAChR [2]): 420000 M⁻¹ s⁻¹
reduction of ACh-evoked currents (rα6/α3β4 nAChR [3]): ~ 85%
reduction of ACh-evoked currents (rα6/α3β2β3 nAChR [4]): ~ 10%
